According to patent US20100159021A1, “Small Molecule Ligands of the Integrin RGD Recognition Site and Methods of Use” (priority 2008, published 2010):

Key:
MDA-MB-231 cells = assay: RNA microarray of differentially-regulated genes; assay type: cell-based, human; conditions: FIG. 9
[1] = system: human breast cancer (MDA-MB-231) cell line; assay: anti-proliferative activity in CESCO bellows bottle perfusion model; assay type: cell-based; conditions: 144 h, MDA MB 231 cells in vitro, exposure for 6 days with daily refreshment, read-out: anti-proliferative (pro-apoptotic) IC50
Experimental: FIGS. 8A and 8B depict the anti-proliferative activities of unmodified tetrac, unmodified resveratrol (RV) and the combination thereof against a human breast cancer (MDA-MB-231) cell line in vitro. The cell line is estrogen receptor (ER)-negative. The test system is a CESCO bellows bottle perfusion model in which cancer cells adhere to plastic flakes and are then exposed to continuous, recycled flow of chemotherapeutic agent in an oxygenated environment. Polyphenol (10 μM) or tetrac (0.1 μM) in DMEM buffer, supplemented with fetal bovine serum, are refreshed daily. […] Results shown are means of triplicate experiments.
MDA-MB cells were seeded in perfusion CESCO bellow bottles. Cells were refreshed with 1% FBS containing DMEM after 24 h incubation. Cells were then treated with tetrac (10^−7 M), or resveratrol (0.1 mM) or both. Resveratrol was added daily and tetrac was added every three days. Cells were harvested as indicated dates and counted.

Oc1ccc(C=Cc2cc(O)cc(O)c2)cc1 [resveratrol]
expression of pro-apoptotic genes CASP2 and NLRP1 (NALP1) (MDA-MB-231 cells; 10 μM, 24 h): upregulated
expression of tumor markers FTCD (hepatoma) and leukemogenic FUS gene (MDA-MB-231 cells; 10 μM, 24 h): suppressed
expression of cancer-relevant genes FUS, AAKJ, USP6 (Tre6) (MDA-MB-231 cells): downregulated
IC50 [1]: 100 nM
